One assay deals with NaV1.5 (Homo sapiens, UniProt Q14524). Briefly: Off‐target panel: NaV1.5 (IonWorks). In kind it is cell-based. On the procedure: (§1) GSK716 selectivity and PK properties were profiled in order to investigate the suitability of GSK716 for progression into in vivo studies and the potential for taking it forward as a clinical candidate for testing in humans. Since GSK716 results in loss of inhibitory activity of α1‐antitrypsin, the effect of the compound was assessed on other closely related serpins. […] Furthermore, there were no off‐target effects in a panel of assays considered predictive of known safety liabilities that precluded further development of GSK716 (Table EV1).
Chain of NaV1.5 (Q14524 whole entry): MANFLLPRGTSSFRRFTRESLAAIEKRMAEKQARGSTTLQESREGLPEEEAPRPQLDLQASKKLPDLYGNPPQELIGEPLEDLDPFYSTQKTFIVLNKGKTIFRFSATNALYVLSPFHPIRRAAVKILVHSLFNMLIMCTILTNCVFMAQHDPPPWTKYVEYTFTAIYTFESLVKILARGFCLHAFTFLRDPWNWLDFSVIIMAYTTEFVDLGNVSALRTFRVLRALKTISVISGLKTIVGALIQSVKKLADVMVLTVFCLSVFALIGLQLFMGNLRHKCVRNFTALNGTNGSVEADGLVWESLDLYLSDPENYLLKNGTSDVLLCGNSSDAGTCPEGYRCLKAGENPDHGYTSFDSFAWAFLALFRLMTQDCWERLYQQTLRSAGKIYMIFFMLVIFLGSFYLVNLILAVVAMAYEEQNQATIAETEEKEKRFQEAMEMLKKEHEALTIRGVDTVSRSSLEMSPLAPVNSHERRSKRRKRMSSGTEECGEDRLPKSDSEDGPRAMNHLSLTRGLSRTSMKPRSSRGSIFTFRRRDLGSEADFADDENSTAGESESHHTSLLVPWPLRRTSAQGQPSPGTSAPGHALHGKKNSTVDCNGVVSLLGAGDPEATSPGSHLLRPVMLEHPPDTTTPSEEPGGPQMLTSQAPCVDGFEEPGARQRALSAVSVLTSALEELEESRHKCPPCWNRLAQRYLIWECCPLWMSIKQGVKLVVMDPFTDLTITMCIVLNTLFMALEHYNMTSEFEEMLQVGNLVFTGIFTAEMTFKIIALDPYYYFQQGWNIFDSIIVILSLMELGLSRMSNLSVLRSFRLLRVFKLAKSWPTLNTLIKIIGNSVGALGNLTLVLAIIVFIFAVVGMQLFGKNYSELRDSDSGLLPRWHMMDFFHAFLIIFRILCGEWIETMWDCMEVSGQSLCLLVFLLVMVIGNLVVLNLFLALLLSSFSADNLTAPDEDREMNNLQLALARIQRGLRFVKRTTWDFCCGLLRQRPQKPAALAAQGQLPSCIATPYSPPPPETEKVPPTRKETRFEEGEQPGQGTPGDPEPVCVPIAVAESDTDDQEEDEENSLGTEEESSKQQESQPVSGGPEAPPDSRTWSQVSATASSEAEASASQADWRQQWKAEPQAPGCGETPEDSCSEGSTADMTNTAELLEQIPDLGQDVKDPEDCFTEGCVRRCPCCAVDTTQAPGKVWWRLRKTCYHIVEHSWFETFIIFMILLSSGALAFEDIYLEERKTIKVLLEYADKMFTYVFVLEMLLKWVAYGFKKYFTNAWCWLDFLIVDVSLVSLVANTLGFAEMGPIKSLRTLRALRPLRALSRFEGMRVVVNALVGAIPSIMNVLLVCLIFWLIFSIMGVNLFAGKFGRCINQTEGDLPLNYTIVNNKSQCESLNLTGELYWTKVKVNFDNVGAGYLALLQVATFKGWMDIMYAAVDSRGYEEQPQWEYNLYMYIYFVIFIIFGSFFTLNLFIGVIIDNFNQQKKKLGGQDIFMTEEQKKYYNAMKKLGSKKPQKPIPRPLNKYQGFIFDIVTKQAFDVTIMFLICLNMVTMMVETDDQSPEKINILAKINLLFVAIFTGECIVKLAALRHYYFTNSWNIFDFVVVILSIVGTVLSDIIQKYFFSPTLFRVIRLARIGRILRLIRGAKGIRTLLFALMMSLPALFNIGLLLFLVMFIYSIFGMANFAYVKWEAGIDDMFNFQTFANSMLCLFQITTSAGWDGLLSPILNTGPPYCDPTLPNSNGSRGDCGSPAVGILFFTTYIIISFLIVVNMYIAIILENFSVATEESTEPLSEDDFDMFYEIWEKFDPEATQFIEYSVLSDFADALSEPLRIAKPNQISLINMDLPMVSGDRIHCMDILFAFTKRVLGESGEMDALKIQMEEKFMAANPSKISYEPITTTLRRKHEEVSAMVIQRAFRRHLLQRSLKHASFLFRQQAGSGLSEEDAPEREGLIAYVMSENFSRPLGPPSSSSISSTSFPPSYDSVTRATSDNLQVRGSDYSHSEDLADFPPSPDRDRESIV
(In general: Patch clamp records ionic current or voltage across a cell membrane.)

For the next assay, the target named is Adrenergic α2C (Homo sapiens, UniProt P18825). Briefly: Off‐target panel: Adrenergic α2C (DRX). Type of assay: cell-based. On the procedure: as §1
Chain of Adrenergic α2C (P18825 whole entry): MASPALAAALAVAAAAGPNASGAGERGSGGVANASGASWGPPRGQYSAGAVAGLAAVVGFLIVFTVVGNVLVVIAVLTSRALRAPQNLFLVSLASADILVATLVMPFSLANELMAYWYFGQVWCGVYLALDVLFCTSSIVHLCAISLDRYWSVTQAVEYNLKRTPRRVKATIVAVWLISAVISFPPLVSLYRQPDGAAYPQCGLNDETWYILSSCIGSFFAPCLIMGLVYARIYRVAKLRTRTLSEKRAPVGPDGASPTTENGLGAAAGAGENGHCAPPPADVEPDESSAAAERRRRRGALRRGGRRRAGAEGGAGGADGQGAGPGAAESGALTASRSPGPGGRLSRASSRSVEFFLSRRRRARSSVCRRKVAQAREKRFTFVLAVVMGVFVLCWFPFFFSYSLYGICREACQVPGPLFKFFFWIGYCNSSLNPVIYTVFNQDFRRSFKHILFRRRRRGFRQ
The target in the next assay is T1, M α1‐antitrypsin (Homo sapiens, UniProt P01009).
T1 construct: purified from the plasma of M (wild‐type) and Z α1‐antitrypsin homozygotes; from tissue; host or cells: human plasma of M (wild-type) homozygotes
T1 sequence (P01009 25-418): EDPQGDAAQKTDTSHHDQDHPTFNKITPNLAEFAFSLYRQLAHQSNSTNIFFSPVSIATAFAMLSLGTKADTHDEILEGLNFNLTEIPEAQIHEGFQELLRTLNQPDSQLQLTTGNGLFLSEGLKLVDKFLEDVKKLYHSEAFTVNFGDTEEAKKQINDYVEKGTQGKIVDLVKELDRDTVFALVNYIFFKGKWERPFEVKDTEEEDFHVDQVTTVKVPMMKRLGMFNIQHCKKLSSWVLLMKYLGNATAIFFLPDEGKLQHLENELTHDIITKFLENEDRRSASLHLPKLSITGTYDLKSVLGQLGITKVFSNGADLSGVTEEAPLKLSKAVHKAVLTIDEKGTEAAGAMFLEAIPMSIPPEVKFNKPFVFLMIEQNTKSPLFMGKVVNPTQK
In words: Association kinetics by intrinsic tryptophan fluorescence (stopped flow), M α1‐antitrypsin. In kind it is binding. The source says: The shape of the curves and native mass spectrometry (not shown) are consistent with a single high‐affinity compound binding site. No binding of the fluorescent derivative to polymers of Z α1‐antitrypsin was observed, indicating conformational selectivity for the monomeric protein (Fig 1D). The rate of interaction of the compound with the target was monitored through changes in intrinsic tryptophan fluorescence (Dafforn et al, 1999); this property was used to determine the second‐order association rate constants for GSK716 binding to Z (4.1 × 10^4 M^−1 s^−1) and M α1‐antitrypsin (2.1 × 10^2 M^−1 s^−1; Fig 1E and F). […] Therefore, the selectivity of the compound for Z over M α1‐antitrypsin is dominated by the difference in the rate of association rather than dissociation.
Kinetic parameters of GSK716 binding to M, Z, S (Glu264Val) and Baghdad (Ala336Pro) (Haq et al, 2016) α1‐antitrypsin were measured by detecting intrinsic tryptophan fluorescence of the protein (excitation at 280 nm and detection of emission at 320 nm) on a stopped flow apparatus (Applied Photophysics) (Kim & Yu, 1996; Dafforn et al, 1999). […]

The next assay has as its target Serotonin 5HT2A (Homo sapiens, UniProt P28223). Briefly: Off‐target panel: Serotonin 5HT2A. In kind it is cell-based. The method, then:
as §1

The target of another assay is Cycloxygenase2 (COX2) (Homo sapiens, UniProt P35354). Briefly: Off‐target panel: Cycloxygenase2 (COX2). Type of assay: biochemical. The settings on record: Inhibition, read-out: Mean (PXC50). On the procedure:
as §1

Another assay addresses Adrenergic α1B (Homo sapiens, UniProt P35368). In words: Off‐target panel: Adrenergic α1B (DRX). Type of assay: cell-based. On the procedure: as §1
The target of the next assay is T2, Muscarinic M1 (Homo sapiens, UniProt P11229).
T2 sequence (P11229 1-460): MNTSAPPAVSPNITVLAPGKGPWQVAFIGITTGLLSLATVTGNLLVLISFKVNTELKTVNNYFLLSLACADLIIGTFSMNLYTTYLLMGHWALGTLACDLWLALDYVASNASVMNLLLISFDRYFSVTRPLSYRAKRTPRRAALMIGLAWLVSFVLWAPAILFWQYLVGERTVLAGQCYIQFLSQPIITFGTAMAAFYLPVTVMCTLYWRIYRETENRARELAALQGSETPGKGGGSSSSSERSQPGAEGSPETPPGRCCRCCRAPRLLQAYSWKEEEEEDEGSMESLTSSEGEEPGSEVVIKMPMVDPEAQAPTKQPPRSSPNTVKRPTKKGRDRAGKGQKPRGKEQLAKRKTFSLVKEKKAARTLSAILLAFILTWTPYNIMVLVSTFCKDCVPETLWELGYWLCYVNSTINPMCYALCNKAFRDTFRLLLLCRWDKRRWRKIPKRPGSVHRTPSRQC
In words: Off‐target panel: Muscarinic M1. In kind it is cell-based. The method, then: as §1

Chain of Serotonin 5HT2A (P28223 whole entry): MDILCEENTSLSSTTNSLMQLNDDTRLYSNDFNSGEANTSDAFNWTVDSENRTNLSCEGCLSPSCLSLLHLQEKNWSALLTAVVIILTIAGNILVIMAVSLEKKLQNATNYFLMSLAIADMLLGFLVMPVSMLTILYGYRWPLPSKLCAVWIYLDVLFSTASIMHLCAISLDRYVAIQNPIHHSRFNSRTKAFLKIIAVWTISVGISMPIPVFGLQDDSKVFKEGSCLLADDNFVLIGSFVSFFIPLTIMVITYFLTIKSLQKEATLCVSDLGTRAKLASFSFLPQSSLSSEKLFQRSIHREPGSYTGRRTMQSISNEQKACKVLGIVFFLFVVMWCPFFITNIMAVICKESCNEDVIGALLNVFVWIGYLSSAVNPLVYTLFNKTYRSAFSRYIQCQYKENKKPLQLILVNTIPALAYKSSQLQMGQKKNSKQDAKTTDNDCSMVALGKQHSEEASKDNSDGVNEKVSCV
Chain of Cycloxygenase2 (COX2) (P35354 18-604): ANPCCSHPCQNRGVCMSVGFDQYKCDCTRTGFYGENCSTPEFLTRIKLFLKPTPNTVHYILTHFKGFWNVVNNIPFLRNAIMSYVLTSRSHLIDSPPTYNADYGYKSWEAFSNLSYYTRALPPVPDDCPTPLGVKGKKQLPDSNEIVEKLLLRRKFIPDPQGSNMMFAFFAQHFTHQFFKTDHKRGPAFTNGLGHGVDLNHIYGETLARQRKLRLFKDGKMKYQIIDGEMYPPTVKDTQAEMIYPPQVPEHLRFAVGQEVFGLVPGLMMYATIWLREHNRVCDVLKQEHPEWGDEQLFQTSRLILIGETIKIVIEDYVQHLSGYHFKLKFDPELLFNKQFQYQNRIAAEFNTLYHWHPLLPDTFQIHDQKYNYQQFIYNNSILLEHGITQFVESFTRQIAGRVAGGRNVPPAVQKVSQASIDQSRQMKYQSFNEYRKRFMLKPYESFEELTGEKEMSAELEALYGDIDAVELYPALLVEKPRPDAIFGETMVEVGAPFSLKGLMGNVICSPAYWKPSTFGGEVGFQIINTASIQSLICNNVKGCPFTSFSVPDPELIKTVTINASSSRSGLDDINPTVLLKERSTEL
Chain of Adrenergic α1B (P35368 whole entry): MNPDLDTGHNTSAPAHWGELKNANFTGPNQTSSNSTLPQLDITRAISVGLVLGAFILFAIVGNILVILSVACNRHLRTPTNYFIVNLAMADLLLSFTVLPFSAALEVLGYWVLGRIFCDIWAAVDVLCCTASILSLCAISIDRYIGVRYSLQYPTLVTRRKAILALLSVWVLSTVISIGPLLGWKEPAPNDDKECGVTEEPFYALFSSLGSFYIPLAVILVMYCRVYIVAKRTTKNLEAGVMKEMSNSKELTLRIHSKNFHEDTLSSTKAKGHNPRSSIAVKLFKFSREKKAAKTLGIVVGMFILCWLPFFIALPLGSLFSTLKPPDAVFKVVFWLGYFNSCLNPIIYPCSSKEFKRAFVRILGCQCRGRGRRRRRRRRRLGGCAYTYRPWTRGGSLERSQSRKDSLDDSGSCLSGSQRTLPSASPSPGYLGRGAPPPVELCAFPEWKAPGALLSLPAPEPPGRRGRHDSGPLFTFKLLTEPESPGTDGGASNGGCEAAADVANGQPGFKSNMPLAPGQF

Regarding `CCC[C@@H](NC(=O)c1cccc2c1CC(=O)N2)[C@@H](O)c1cccc(F)c1C` [GSK716], the IC50 on NaV1.5 is 79.4 µM; at Serotonin 5HT2A, above 25.1 µM; on Cycloxygenase2 (COX2), above 100 µM; on Adrenergic α1B it was above 25.1 µM; at Muscarinic M1, above 50.1 µM. Further, the figures for the EC50 on Adrenergic α2C, at Serotonin 5HT2A and on Muscarinic M1 were above 100 µM, above 25.1 µM and above 50.1 µM, respectively. For the same compound, at M α1‐antitrypsin (calculated from association rate constant and affinity, read-out: first‐order dissociation rate constant), the koff is 1.6e-05 s⁻¹. For the same compound, the kon at M α1‐antitrypsin (read-out: second‐order association rate constant) is 210 M⁻¹ s⁻¹.

The record behind these values is publication PMC7933930, “Development of a small molecule that corrects misfolding and increases secretion of Z α1‐antitrypsin” (EMBO Molecular Medicine, 2021).
